Counter-ions that a name gives are not always drawn. Like-named read-outs stand apart in the source and are kept apart here.
Tests used:
[1] = system: Hep3B xenograft; settings: 30 mg/kg, oral, QD 28 days
[2] = target: T1, GPC3 (Homo sapiens, UniProt P51654); assay: GPC3 binding via flow cytometry using GPC3+ HEK293 cells; design: expressed in transfected cells; host or cells: engineered HEK293 cells overexpressing GPC3; settings: for GPC3 binding activity (MFI): GPC3^+ HEK293 cells; for Kd: flow cytometry using GPC3+ HEK293 cells
Description: (§1) Two independent SELEX selections were carried to select clones that specifically bind to GPC3. Seven to nine rounds of nitrocellullose filter SELEX (Jhaveri et al., In vitro selection of RNA aptamers to a protein target by filter immobilization. Curr Protoc Nucleic Acid Chem. 2001, Chapter 9: Unit 9.3. doi: 10.1002/0471142700.nc0903s00. PMID: 18428881) were preformed using recombinant GPC3 protein. DNA clones from the final rounds of SELEX were sent for next generation sequencing and the data were analyzed for abundance. The highest abundant sequences (clones) were made via chemical synthesis and used in screening. The clones were screened for GPC3 binding via flow cytometry using engineered HEK293 cells overexpressing GPC3 (GPC3+ HEK293).
Additional variants surrounding the core motif were made in which stem 2 (as depicted in FIG. 1) is extended by 1 or 2 additional base pairs (GRX1187 and GRX2101 respectively) or replaced with an alternative stem and loop sequence (GRX958). Additionally, a construct was designed in which stem 2 is closed with a 4 base loop and stem 1 is open creating a new 5′ and 3′ end, GRX2102. […] (Table 7)

[3] = system: GPC3^− HEK293 cells; assay: Flow cytometry binding control with GPC3− HEK293 cells
Description: as §1
(§2) Binding of aptamer variants to GPC3 was tested with melting curve analysis (thermofluorimetric analysis). The control of experiment was carried out similarly with GPC3^− HEK293 cells.

[4] = Melting curve analysis (thermofluorimetric analysis); format: physicochemical; settings: compared to original clone F14, #Min4 and #Min5
Description: as §2

[5] = target: T1, GPC3; assay: Binding kinetics of top minimers (Ka, Kd, KD)
Excerpt: (§3) The best minimer, GRX46, as well as combinations of variants with top activities were selected for further evaluation (Table 6).

[6] = target: T1, GPC3; assay: Binding activity of minimers incl. refolding and freeze/thaw tests
Excerpt: When the lineal GRX8 sequence is refolded, the binding activity of GRX8 improves.
as §3

[7] = target: T2, endogenously expressed GPC3 (Homo sapiens, UniProt P51654); assay: Binding to cancer cells endogenously expressing GPC3 (Hep3B, HepG2, NCI-H446, Huh7); settings: data not shown; for need of refolding for maximal activity: binding to Hep3B cells
T2 construct: endogenously expressed GPC3 on different cancer cells; endogenous in cells; host or cells: Hep3B, HepG2, NCI-H446, Huh7
Excerpt: Human hepatocellular Carcinoma cells HepG2 and Hep 3B overexpressing GPC3 were used to test the affinity of the selected positive clones. The binding studies indicate that several selected aptamer candidates (Table 3) from both libraries can bind human hepatocellular Carcinoma cells with high affinity.
A pool of partial randomization sequences from GRX8 was created and selected by cell-SELEX using GPC3^+ HEK293 cells. Those variants comprise various changes to the structural elements of GRX8, including changes to the external loop, stack, helix, hairpin loop and stem, etc. The clones were further screened with Hep3B cells and minimized based on original structure. The minimer #Min9 was further randomly mutagenized for sequence changes that can improve the binding affinity to GPC3. Another minimer variant (ID No.: GRX46)
with increased activity was further tested.

[8] = system: Hep3B xenograft; assay: GRX26 in Hep3B xenograft mouse model; settings: 28 Days; for Relative tumor volume growth (Day 28): vehicle = 1.00
Description: (SEQ ID NO.: 32) (ID NO. #GRX26). GRX26 was tested in Hep3B xenograft mouse model for its activity in vivo (Table 8).

[9] = system: Hep3B xenograft
[10] = system: Hep3B xenograft; remark: listed apart in the source
[11] = target: T3, Glypican-3 (GPC3) (UniProt P51654;P51654 P51654:25-358,P51654:359-554); assay: flow; GPC3+ HEK293 cells; settings: tags: overexpressed in engineered HEK293 cells (GPC3+ HEK293)
[12] = target: T3, Glypican-3 (GPC3); assay: assay and GPC3 source not stated; fusion does not affect GPC3 binding; settings: tags: recombinant GPC3 used for SELEX; source inferred for kinetic assay
[13] = 5 mg/kg, IP, QD/7Days, vehicle = 1.00

In the case of `CNC(=O)c1cc(Oc2ccc(NC(=O)Nc3ccc(Cl)c(C(F)(F)F)c3)cc2)ccn1` [Sorafenib Tosylate], the “% of body weight loss (Day 28)” value [1] is reported as 9.33%.

For “AAGCATTACCGGGTTGCTACCCAAGGACAAGAGTCGATGATGCTT (listed as DNA, chemistry not fully specified) [Min2, 27]”, the “binding activity to GPC3^+ HEK293 cells compared to full sequence of clone F14” value [2] was “significantly increased”, the “GPC3 binding activity (MFI)” value [2] was 16652 and the “GPC3 binding activity (MFI)” value [3] was 720.

For “AAGCCATTACCGGGTTGCTACCCAAGGACAAGAGTCGATGATGCTT (listed as DNA, chemistry not fully specified) [Min1, 26]”, the “binding activity to GPC3^+ HEK293 cells compared to full sequence of clone F14” value [2] was “significantly increased”, the “GPC3 binding activity (MFI)” value [2] was 11403 and the “GPC3 binding activity (MFI)” value [3] was 579.

In the case of “AAGCCATTACCGGGTTGCTACCCGAGGACAAGAGTCGATGATGCTT (listed as DNA, chemistry not fully specified) [Min3, 28]”, the “GPC3 binding activity (MFI)” value [2] is reported as 377 and the “GPC3 binding activity (MFI)” value [3] is reported as 444.

In the case of “AAGCCATTATCGGGTTGCTACCCAAGGACAAGAGTCGATGATGCTT (listed as DNA, chemistry not fully specified) [Min4, 29]”, the “binding activity to GPC3^+ HEK293 cells compared to full sequence of clone F14” value [2] is reported as “significantly increased”, the “GPC3 binding activity (MFI)” value [2] is reported as 23261 and the “GPC3 binding activity (MFI)” value [3] is reported as 1072.

In the case of “CATTATCGGGTTGCTACCCAAGGACAAGAGTCGATGATG (listed as DNA, chemistry not fully specified) [Min5, 30]”, the “binding activity to GPC3^+ HEK293 cells compared to full sequence of clone F14” value [2] is reported as “significantly increased”, the “GPC3 binding activity (MFI)” value [2] is reported as 19484 and the “GPC3 binding activity (MFI)” value [3] is reported as 946.

In the case of “CATTATCGGGTTGCTACCCGAGGACAAGAGTCGATGATG (listed as DNA, chemistry not fully specified) [Min6, 31]”, the “GPC3 binding activity (MFI)” value [2] is reported as 3619 and the “GPC3 binding activity (MFI)” value [3] is reported as 507.

Work on “CGGGAGUCCUAGGAAGGACGGGUUGCUACCCAAGUCCCG (listed as RNA, chemistry not fully specified) [GRX2102, 79]” yielded a Kd [2] of 0.0269 µM.

With “CGTCATCGGGTTGCTACCCAAGGACAAGAGTCGATGACG (listed as DNA, chemistry not fully specified) [Min9, 32]” the thermal stability [4] was “thermally more stable”.

With “CGTCGTCGGGTTGCTACCCAAGGACAAGAGTCGACGACG (listed as DNA, chemistry not fully specified) [Min9.2, 33]” the thermal stability [4] was “thermally more stable”.

For “CGUCAUCGGGUUGCUACCCAAGGACAAGAGUCGAUGACG (RNA aptamer, any chemical modification not given here, further chemistry not given here) [GRX8]”, the Ka [5] was 61900 M⁻¹ s⁻¹, the “binding activity when the lineal sequence is refolded” value [6] was “improves” and the “binding affinity to exogenously expressed GPC3” value ([6]; FIG. 2) was “high binding affinity”. The “stability of activity in freeze/thaw tests” value ([6]; frequent freeze/thaw) was “stable and not affected by the frequent freeze/thaw tests”.

“CGUCAUCGGGUUGCUACCCAAGGCACCAGGAGGUGCGAUGACG (listed as RNA, chemistry not given here) [GRX2101, 78]” showed a Kd [2] of 0.0293 µM.

With “CGUCAUCGGGUUGCUACCCAAGGCCAGGAGGCGAUGACG (listed as RNA, chemistry not fully specified) [GRX49, 25]” the Ka [5] was 199000 M⁻¹ s⁻¹, the Kd [2] was 0.009 µM and the “binding to endogenously expressed GPC3 on cancer cells” value ([7]; Hep3B, HepG2, NCI-H446, Huh7) was “selectively bind”. The “need of refolding for maximal activity” value [7] was “do not require refolding for maximal activity”.

In the case of “CGUCAUCGGGUUGCUACCCAAGGCCCAGGAGGGCGAUGACG (listed as RNA, chemistry not given here) [GRX1187, 77]”, the Kd [2] is reported as 0.0642 µM.

With “CGUCAUCGGGUUGCUACCCAAGGUCAAGAGACGAUGACG (listed as RNA, chemistry not fully specified) [GRX46]” the Ka [5] was 55400 M⁻¹ s⁻¹ and the “binding activity and refolding behavior relative to GRX8” value ([6]; data not shown) was “similar, enhanced binding activity”.

With “CGUCAUCGGGUUGCUACCCAAGGUCAGGAGACGAUGACG (listed as RNA, chemistry not given here) [GRX8 with triple]” the Ka [5] was 112000 M⁻¹ s⁻¹ and the “need of refolding for maximal activity” value [7] was “do not require refolding for maximal activity”.

For “CGUCAUCGGGUUGCUACCCAAGGUCAGGUGACGAUGACG (listed as RNA, chemistry not given here) [GRX8 with QUAD6]”, the Ka [5] was 201000 M⁻¹ s⁻¹ and the “need of refolding for maximal activity” value [7] was “do not require refolding for maximal activity”.

For “DM1-CGTCATCGGGTTGCTACCCAAGGACAAGAGTCGATGACG [GRX26]”, the “% of body weight loss” value ([8]; 2.5 mg/kg) was 10.67%, the “Relative tumor volume growth (Day 28)” value ([8]; 2.5 mg/kg) was 0.69 and the “% of body weight loss” value ([8]; 10 mg/kg, IP/QD) was 14.86%. The “Relative tumor volume growth (Day 28)” value ([8]; 10 mg/kg, IP/QD) was 0.46.

With “GACUAGAUCGGGUUGCUACCCAAGCUCCGGUUCAGAUCGAUGGAGGAUCUAGUC (listed as RNA, chemistry not fully specified) [GRX958, 76]” the Kd [2] was 0.0331 µM.

In the case of “GGCATCGGGTTGCTACCCAAGGACAAGAGTCGATGCC (listed as DNA, chemistry not fully specified) [Min11, 34]”, the thermal stability [4] is reported as “thermally more stable”.

In the case of Keytruda: the PD-1R inhibitor Keytruda, the “% of body weight loss” value ([9]; 10 mg/kg) is reported as 3.66%, the “reduction of tumor size” value ([9]; 10 mg/kg once every 3 days i.p., 11 days) is reported as 18% and the “Relative tumor volume growth (Day 11)” value ([9]; 10 mg/kg, vehicle = 1.00) is reported as 0.82.

For TCGTCGTTTTGTCGTTTTGTCGTT [CpG], the “Relative tumor volume growth (Day 7)” value [10, 13] was 0.57, the “Relative tumor volume growth (Day 18)” value [10, 13] was 0.47 and the “final immune: tumor cell ratio relative to the vehicle control” value ([10]; 7-day on/7-day off daily dosing schedule) was 1.51±0.95.

B1: GGGAGACAAGAATAAAGCGAGTTTGAAGCCATTACCGGGTTGCTACCCAAGGACAAGAGTCGATGATGCTTAGCTAG (nucleic acid)
chain: GGGAGACAAGAATAAAGCGAGTTTGAAGCCATTACCGGGTTGCTACCCAAGGACAAGAGTCGATGATGCTTAGCTAG
modifications: listed as DNA, chemistry not fully specified
notes: 12
For B1, the “GPC3 binding activity (MFI)” value [2] was 5050 and the “GPC3 binding activity (MFI)” value [3] was 1040.

B2: GRX1187 (ssRNA)
RNA: CGUCAUCGGGUUGCUACCCAAGGCCCAGGAGGGCGAUGACG
modifications: fully 2'-OMe
Molecule B2 has a Kd ([11]; stem 2 extended by 1 bp) of 0.0642 µM.

B3: GRX51 (CpG7909-GRX49 fusion) (mixed)
mixed: TCGTCGTTTTGTCGTTTTGTCGTTCGUCAUCGGGUUGCUACCCAAGGCCAGGAGGCGAUGACG
modifications: PS DNA CpG7909 portion, 2'-OMe aptamer portion
B3 gave an IC50 [12] of 0.0327 µM.

B4: GRX2101 (ssRNA)
RNA: CGUCAUCGGGUUGCUACCCAAGGCACCAGGAGGUGCGAUGACG
modifications: fully 2'-OMe
In the case of B4, the Kd ([11]; stem 2 extended by 2 bp) is reported as 0.0293 µM.

B5: GRX2102 (ssRNA)
RNA: CGGGAGUCCUAGGAAGGACGGGUUGCUACCCAAGUCCCG
modifications: fully 2'-OMe
In the case of B5, the Kd ([11]; stem 2 closed with 4-base loop, stem 1 open (new 5' and 3' ends)) is reported as 0.0269 µM.

B6: GRX958 (ssRNA)
RNA: GACUAGAUCGGGUUGCUACCCAAGCUCCGGUUCAGAUCGAUGGAGGAUCUAGUC
modifications: fully 2'-OMe
B6 gave a Kd ([11]; stem 2 replaced with alternative stem and loop) of 0.0331 µM.

Source: patent publication US20250281621A1, “GPC3 APTAMERS AND VARIANTS AND USE THEREOF” (Guardian Therapeutics, LLC, priority 2020, published 2025)
